Laboratory results as given in US20100234226A1, “HERBICIDE COMBINATION COMPRISING DIMETHOXYTRIAZINYL-SUBSTITUTED DIFLUOROMETHANESULFONYLANILIDES” (BAYER CROPSCIENCE AG, priority 2008, published 2010).
Like-named read-outs stand apart in the source and are kept apart here.

Tests used:
Type in all cases: in vivo
[1] = tested on: Matricaria inodora (MATIN); test: Post-emergence action against weeds, greenhouse pot test, Matricaria inodora; conditions: for inhibition at 200 g/ha: 200 g of ai/ha; for inhibition at 600 g/ha: 600 g of ai/ha; for (7) % activity found: MATIN
Protocol: (§1) Seeds or rhizome pieces of mono- and dicotyledonous harmful and useful plants were placed in peat pots (diameter 4 cm) filled with sandy loam and then covered with soil. The pots were kept in a greenhouse under optimum conditions. In addition, harmful plants encountered in paddy rice cultivation were cultivated in pots with a water level 2 cm above the soil surface.
(§2) About three weeks after the start of the cultivation, the test plants were treated at the 2- to 3-leaf stage. The herbicides, formulated as powder or liquid concentrates, were, either alone or in the combinations according to the invention, sprayed in various dosages on to the green parts of the plants using an application rate of 600 l of water/ha (converted). For further cultivation of the plants, the pots were then again kept under optimum conditions in a greenhouse.
(§3) The visual scoring of the herbicidal effects was carried out in intervals up to 21 days after the treatment. Scoring was carried out in percent in comparison to the untreated control plants. 0%=no herbicidal activity, 100%=complete herbicidal activity=complete kill.
(§4) The percentages from the treatments with the herbicides alone (=individual application) and with the combinations according to the invention (=mixtures) were employed to calculate interactions using the method of Colby. When the observed efficacies of the mixtures exceed the formal sum of the values of the tests with individual applications, they also exceed the expected value according to Colby, which is calculated using the formula below (cf. S. R. Colby; in Weeds 15 (1967) pp. 20 to 22):
(§5) Here: • A, B=activity of components A and B in percent at a dosage of a and b g of ai/ha (=gramm of active substance per hectare), respectively. • E=expected value in % at a dosage of a+b g of ai/ha.

[2] = tested on: Amaranthus retroflexus (AMARE); test: Post-emergence action against weeds, greenhouse pot test, Amaranthus retroflexus; conditions: read-out: % activity found
Protocol: as §1, §2, §3, §4, §5
(§6) The combinations according to the invention of herbicides from group (A) with herbicides from group (B) were tested on a broad spectrum of important harmful plants (weed grasses, broad-leaved weeds/Cyperaceae) and useful plants: Triticum aestivum (TRZAS), Stellaria media (STEME), Lolium multiflorum (LOLMU), Veronica persica (VERPE), Alopecurus myosuroides (ALOMY), Matricaria inodora (MATIN), Brassica napus (BRSNW), Viola tricolor (VIOTR), Avena fatua (AVEFA), Amaranthus retroflexus (AMARE), Zea mays (ZEAMX), Pharbitis purpurea (PHBPU), Setaria viridis (SETVI), Fallopia (ex Polygonum) convolvulus (POLCO), Echinochloa crus-gaffi (ECHCG), Abuthilon theophrasti (ABUTH), Cyperus esculentus (CYPES), Oryza sativa (ORYSA).
(§7) Of particular interest are the results shown in the tables (Tab.) below, where the following key is used: • (1) EPPO code (former Bayer code) for the treated plant (see above) • (2) Time of scoring: DAT (days after treatment) • (3) Component A tested (identifying number) • (4) Component B tested (identifying number) • (5) Dosage component A [g of ai/ha] • (6) Dosage component B [g of ai/ha] • (7) % activity found • (8) E value (calculated according to Colby; see above) • (9) Comments: “SYNERGY”=synergistic interaction (E value <% activity found); “SAFENING”=safener action on useful plant (E value >% activity found)

[3] = tested on: Veronica persica (VERPE); test: Post-emergence action against weeds, greenhouse pot test, Veronica persica; conditions: read-out: % activity found; for inhibition at 4 g/ha: 4 g of ai/ha; for inhibition at 12 g/ha: 12 g of ai/ha
Protocol: as §1, §2, §3, §4, §5, §6, §7

[4] = tested on: Lolium multiflorum (LOLMU); test: Post-emergence action against weeds, greenhouse pot test, Lolium multiflorum; conditions: read-out: % activity found; for inhibition at 200 g/ha: 200 g of ai/ha; for inhibition at 600 g/ha: 600 g of ai/ha
Protocol: as §1, §2, §3, §4, §5, §6, §7

[5] = tested on: Viola tricolor (VIOTR); test: Post-emergence action against weeds, greenhouse pot test, Viola tricolor; conditions: for inhibition at 200 g/ha: 200 g of ai/ha
Protocol: as §1, §2, §3, §4, §5, §6, §7

[6] = tested on: Zea mays (ZEAMX); test: Post-emergence action against weeds, greenhouse pot test, Zea mays; conditions: for inhibition at 200 g/ha: 200 g of ai/ha
Protocol: as §1, §2, §3, §4, §5, §6, §7

[7] = tested on: Fallopia (ex Polygonum) convolvulus (POLCO); test: Post-emergence action against weeds, greenhouse pot test, Fallopia convolvulus
Protocol: as §1, §2, §3, §4, §5, §6, §7

[8] = tested on: Cyperus esculentus (CYPES); test: Post-emergence action against weeds, greenhouse pot test, Cyperus esculentus
Protocol: as §1, §2, §3, §4, §5

[9] = tested on: Triticum aestivum (TRZAS); test: Post-emergence action against weeds, greenhouse pot test, Triticum aestivum; conditions: 240 h, read-out: % activity found
Protocol: as §1, §2, §3, §4
(§8) Here: • A, B=activity of components A and B in percent at a dosage of a and b g of ai/ha (=gramm of active substance per hectare), respectively. • E=expected value in % at a dosage of a+b g of ai/ha. […]

[10] = tested on: Setaria viridis (SETVI); test: Post-emergence action against weeds, greenhouse pot test, Setaria viridis; conditions: 504 h, read-out: % activity found
Protocol: as §1, §2, §3, §4, §8

[11] = Tripleurospermum inodorum, post-emergence, 240 h, 10 DAT, read-out: % activity found
[12] = Tripleurospermum inodorum, post-emergence, 504 h, 21 DAT, read-out: % activity found
[13] = Zea mays, post-emergence, 240 h, read-out: % activity found
[14] = Fallopia convolvulus, post-emergence, 504 h, read-out: % activity found

CCOC1Oc2ccc(OS(C)(=O)=O)cc2C1(C)C (racemic) [B-49, (±)-2-ethoxy-2,3-dihydro-3,3-dimethyl-5-benzofuranyl methanesulfonate]
inhibition at 200 g/ha [1, 11]: 0%
inhibition at 600 g/ha [1, 11]: 0%
inhibition at 200 g/ha [1, 12]: 20%
inhibition at 600 g/ha [1, 12]: 30%
inhibition at 200 g/ha ([2]; 504 h, 21 DAT, 200 g of ai/ha): 50%
inhibition at 200 g/ha ([3]; 504 h, 21 DAT, 200 g of ai/ha): 20%
inhibition at 200 g/ha ([4]; 240 h, 10 DAT): 0%
inhibition at 600 g/ha ([4]; 240 h, 10 DAT): 10%
inhibition at 200 g/ha ([4]; 504 h, 21 DAT): 0%
inhibition at 600 g/ha ([4]; 504 h, 21 DAT): 0%
inhibition at 200 g/ha ([5]; Viola tricolor, post-emergence, 240 h, 10 DAT, read-out: % activity found): 0%
inhibition at 200 g/ha ([5]; Viola tricolor, post-emergence, 504 h, 21 DAT, read-out: % activity found): 0%
inhibition at 600 g/ha ([5]; Viola tricolor, post-emergence, 504 h, 21 DAT, 600 g of ai/ha, read-out: % activity found): 0%
inhibition at 200 g/ha ([6]; Zea mays, post-emergence, 240 h, 10 DAT, read-out: % activity found): 30%
inhibition at 600 g/ha ([6]; Zea mays, post-emergence, 240 h, 10 DAT, 600 g of ai/ha, read-out: % activity found): 40%
inhibition at 200 g/ha ([6]; Zea mays, post-emergence, 504 h, 21 DAT, read-out: % activity found): 0%
inhibition at 200 g/ha ([7]; Fallopia convolvulus, post-emergence, 504 h, 21 DAT, 200 g of ai/ha, read-out: % activity found): 40%
inhibition at 600 g/ha ([7]; Fallopia convolvulus, post-emergence, 504 h, 21 DAT, 600 g of ai/ha, read-out: % activity found): 50%
inhibition at 600 g/ha ([8]; Cyperus esculentus, post-emergence, 504 h, 21 DAT, 600 g of ai/ha, read-out: % activity found): 0%

CNC1=C(c2cccc(C(F)(F)F)c2)C(=O)C(c2ccccc2)O1 (racemic) [B-61, (±)-5-(methylamino)-2-phenyl-4-[3-(trifluoromethyl)phenyl]-3(2H)-furanone]
(7) % activity found ([1]; 21 DAT, B-61 alone, dose (6) 40): 50%
(7) % activity found ([1]; 21 DAT, B-61 alone, dose (6) 120): 50%
(7) % activity found ([1]; 21 DAT, Table 65, B-61 alone, dose (6) 40): 50%
inhibition at 40 g/ha [9]: 30%
inhibition at 40 g/ha ([4]; 240 h): 50%
inhibition at 40 g/ha ([4]; 504 h): 40%
(7) % activity found ([5]; VIOTR, 21 DAT, B-61 alone, dose (6) 120): 70%
(7) % activity found ([6]; ZEAMX, 21 DAT, B-61 alone, dose (6) 120): 50%
inhibition at 40 g/ha [6, 13]: 40%
inhibition at 120 g/ha [6, 13]: 50%
(7) % activity found ([8]; CYPES, 21 DAT, B-61 alone, dose (6) 40): 20%

COc1nc(OC)nc(C(=O)c2cccc(F)c2N(C)S(=O)(=O)C(F)F)n1 [A-1]
(7) % activity found ([1]; 21 DAT, A-1 alone, dose (5) 4): 50%
(7) % activity found ([1]; 21 DAT, Table 65, A-1 alone, dose (5) 12): 60%
inhibition at 4 g/ha ([1]; Tripleurospermum inodorum, post-emergence, 10/21 DAT, 4 g of ai/ha, read-out: % activity found): 50%
inhibition at 4 g/ha ([2]; 240 h, 10 DAT, 4 g of ai/ha): 70%
inhibition at 4 g/ha ([3]; 240 h, 10 DAT): 60%
inhibition at 12 g/ha ([3]; 240 h, 10 DAT): 60%
inhibition at 4 g/ha ([3]; 504 h, 21 DAT): 30%
inhibition at 12 g/ha ([3]; 504 h, 21 DAT): 40%
inhibition at 4 g/ha ([5]; Viola tricolor, post-emergence, 240 h, 10 DAT, 4 g of ai/ha, read-out: % activity found): 20%
% activity found ([7]; 21 DAT, 12 g of ai/ha): 75%
inhibition at 12 g/ha ([8]; Cyperus esculentus, post-emergence, 240 h, 10 DAT, 12 g of ai/ha, read-out: % activity found): 70%

CCS(=O)(=O)Oc1ccc2c(c1)C(C)(C)CO2 [B-9, 2,3-dihydro-3,3-dimethyl-5-benzofuranyl ethanesulfonate]
inhibition at 100 g/ha ([1]; Tripleurospermum inodorum, post-emergence, 504 h, read-out: % activity found): 50%
inhibition at 100 g/ha ([3]; 504 h): 0%
inhibition at 100 g/ha [10]: 40%
inhibition at 300 g/ha ([4]; 504 h): 0%
inhibition at 100 g/ha [6, 13]: 10%
inhibition at 300 g/ha [6, 13]: 20%
inhibition at 300 g/ha ([6]; Zea mays, post-emergence, 504 h, read-out: % activity found): 0%
inhibition at 100 g/ha [7, 14]: 0%
inhibition at 300 g/ha [7, 14]: 30%
